Calls of active or inactive are those of the source. The calls are words filed in the database; no cut-off is given here. Bridge positions count the residues as written; N and C are the ends. Peptide text beside a SMILES is read from it. * marks the point of attachment. Bz = O=C(c1ccccc1)* Bounds are passed on as bounds.

The target of series [1] is T1, Nociceptin receptor (Mus musculus, UniProt P35377). As to the kind of experiment: Agonist activity at NOR in mouse Neuro-2a cells assessed as stimulation of ERK phosphorylation after 35 mins post dose by Alphascreen Surefire assay.
T1 sequence (P35377 whole entry): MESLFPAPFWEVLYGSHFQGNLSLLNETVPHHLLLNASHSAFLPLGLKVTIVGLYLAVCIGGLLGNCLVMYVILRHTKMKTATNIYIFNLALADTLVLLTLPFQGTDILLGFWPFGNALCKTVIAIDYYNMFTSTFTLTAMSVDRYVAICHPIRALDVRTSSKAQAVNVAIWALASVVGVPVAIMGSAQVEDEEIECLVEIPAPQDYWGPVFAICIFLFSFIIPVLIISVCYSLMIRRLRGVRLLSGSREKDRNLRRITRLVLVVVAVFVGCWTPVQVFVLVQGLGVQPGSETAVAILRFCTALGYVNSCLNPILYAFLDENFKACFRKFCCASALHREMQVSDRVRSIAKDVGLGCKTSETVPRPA
In series [2] the target is T1, Nociceptin receptor. As to the kind of experiment: Antagonist activity at NOR in mouse Neuro-2a cells assessed as inhibition of nociceptin-induced ERK phosphorylation administered for 15 mins before nociceptin challenge by Alphascreen Surefire assay. The series is classed as functional, cell-based.
Series [3] addresses Nociceptin receptor (Mus musculus) (UniProt P35377). The experiment in a line: Agonist activity at NOR in mouse Neuro-2a cells assessed as stimulation of ERK phosphorylation after 35 mins post dose by Alphascreen Surefire assay relative to control.
The target is the same in series [4]. The experiment in a line: Antagonist activity at NOR in mouse Neuro-2a cells assessed as inhibition of nociceptin-induced ERK phosphorylation at 100 nM administered for 15 mins before nociceptin challenge by Alphascreen Surefire assay. It counts as functional, cell-based.
Series [5] in a line: Half life in human serum. It counts as ADME, cell-free.
Series [6] in a line: Cytotoxicity in human erythrocytes assessed as induction of hemolysis at 100 uM. It counts as cell-based. The note with it: erythrocyte.
For series [7], the target named is Nociceptin receptor (Mus musculus) (UniProt P35377). As to the kind of experiment: Agonist activity at NOR in mouse Neuro-2a cells assessed as stimulation of ERK phosphorylation at 1 uM after 35 mins post dose by Alphascreen Surefire assay.
Sequence of Nociceptin receptor (Mus musculus) (P35377 whole entry): as above
Series [8] has as its target T1, Nociceptin receptor. As to the kind of experiment: Antagonist activity at NOR in mouse Neuro-2a cells assessed as inhibition of nociceptin-induced ERK phosphorylation administered for 15 mins before nociceptin challenge by competitive inhibition assay. The series is classed as functional, cell-based. The settings on record: read-out: pA2 (converted).

Regarding `C[C@@H](O)[C@H](NC(=O)[C@H](Cc1ccccc1)NC(=O)CNC(=O)CNC(=O)[C@@H](N)Cc1ccccc1)C(=O)NCC(=O)N[C@H]1CCCCNC(=O)C[C@@H](C(N)=O)NC(=O)[C@H](CCCCN)NC(=O)[C@H](CCCN=C(N)N)NC(=O)[C@@H]2CC(=O)NCCCC[C@@H](CC(=O)[C@H](CCCCN)NC(=O)[C@H](CCCN=C(N)N)NC1=O)C(=O)N2`, in series [1], the EC50 came out at 14 nM.

`CC(=O)N[C@H](C(=O)N[C@H]1CCCCNC(=O)C[C@@H](C(=O)N[C@H]2CCCCNC(=O)C[C@@H](C(N)=O)NC(=O)[C@H](CC(C)C)NC(=O)[C@H](CCCCN)NC(=O)[C@H](CCCN=C(N)N)NC2=O)NC(=O)[C@H](CCCCN)NC(=O)[C@H](CCCN=C(N)N)NC(=O)[C@H](C)NC1=O)[C@@H](C)O` (Ac-TKARKDKRKLD-NH2; lactam 2-6, 7-11): in series [2] (read-out: pIC50 (converted)), the IC50 is over 100 nM.

In the case of `C[C@@H](O)[C@H](NC(=O)[C@H](Cc1ccccc1)NC(=O)CNC(=O)CNC(=O)[C@@H](N)Cc1ccccc1)C(=O)NCC(=O)N[C@H]1CCCCNC(=O)C[C@@H](C(=O)N[C@@H](CCCNC(=N)N)C(=O)N[C@@H](CCCCN)C(N)=O)NC(=O)[C@H](CO)NC(=O)[C@H](CCCCN)NC(=O)[C@H](CCCNC(=N)N)NC1=O` (H-FGGFTGKRKSDRK-NH2; lactam 7-11), the Emax in series [3] was determined as 80%.

For `C[C@@H](O)[C@H](NC(=O)[C@H](Cc1ccc(F)cc1)NC(=O)CNC(=O)CNC(=O)[C@@H](N)Cc1ccccc1)C(=O)NCC(=O)N[C@H]1CCCCNC(=O)C[C@@H](C(=O)N[C@@H](CCCN=C(N)N)C(=O)N[C@@H](CCCCN)C(=O)N[C@H]2CCCCNC(=O)C[C@@H](C(N)=O)NC(=O)[C@H](CCC(N)=O)NC(=O)[C@H](CC(N)=O)NC(=O)[C@H](CCCCN)NC2=O)NC(=O)[C@H](CO)NC(=O)[C@H](CCCCN)NC(=O)[C@H](CCCN=C(N)N)NC1=O`, the EC50 in series [1] and in series [1] (neuro-2a) was 0.04 nM each time.

For `CC(C)C[C@H](NC(=O)[C@H](CCCCN)NC(=O)[C@H](CCCN=C(N)N)NC(=O)[C@H](C)NC(=O)[C@H](CO)NC(=O)[C@H](CCCCN)NC(=O)[C@H](CCCN=C(N)N)NC(=O)[C@H](C)NC(=O)CNC(=O)[C@@H](NC(=O)[C@H](Cc1ccc(F)cc1)NC(=O)CNC(=O)CNC(=O)CNCc1ccccc1)[C@@H](C)O)C(=O)N[C@@H](CCCCN)C(=O)N[C@@H](CC(N)=O)C(=O)N[C@@H](CCC(N)=O)C(N)=O`, the pIC50 in series [2] (neuro-2a) was found to be 7.49.

`C[C@@H](O)[C@H](NC(=O)[C@H](Cc1ccccc1)NC(=O)CNC(=O)CNC(=O)CNC(=O)c1ccccc1)C(=O)NCC(=O)N[C@H]1CCCCNC(=O)C[C@@H](C(=O)N[C@@H](CCCN=C(N)N)C(=O)N[C@@H](CCCCN)C(=O)N[C@H]2CCCCNC(=O)C[C@@H](C(N)=O)NC(=O)[C@H](CCC(N)=O)NC(=O)[C@H](CC(N)=O)NC(=O)[C@H](CCCCN)NC2=O)NC(=O)[C@H](CO)NC(=O)[C@H](CCCCN)NC(=O)[C@H](CCCN=C(N)N)NC1=O` (Bz-GGGFTGKRKSDRKKKNQD-NH2; lactam 7-11, 14-18): the IC50 in series [2] (read-out: IC50) was 12 nM.

In the case of `CC(=O)N[C@H](C(=O)N[C@H]1CCCCNC(=O)C[C@@H](C(=O)N[C@H]2CCCCNC(=O)C[C@@H](C(N)=O)NC(=O)[C@H](CC(C)C)NC(=O)[C@H](CCCCN)NC(=O)[C@H](CCCNC(=N)N)NC2=O)NC(=O)[C@H](CCCCN)NC(=O)[C@H](CCCNC(=N)N)NC(=O)[C@H](C)NC1=O)[C@@H](C)O` (Ac-TKARKDKRKLD-NH2; lactam 2-6, 7-11), in series [4], the inhibition entry was “inactive”.

On to `CC(C)C[C@H](NC(=O)[C@H](CCCCN)NC(=O)[C@H](CCCN=C(N)N)NC(=O)[C@H](C)NC(=O)[C@H](CO)NC(=O)[C@H](CCCCN)NC(=O)[C@H](CCCN=C(N)N)NC(=O)[C@H](C)NC(=O)CNC(=O)[C@@H](NC(=O)[C@H](Cc1ccc(F)cc1)NC(=O)CNC(=O)CNC(=O)[C@@H](N)Cc1ccccc1)[C@@H](C)O)C(=O)N[C@@H](CCCCN)C(=O)N[C@@H](CC(N)=O)C(=O)N[C@@H](CCC(N)=O)C(N)=O`, for which the EC50 in series [1] worked out at 0.36 nM.

As to `CC(C)C[C@H](NC(=O)[C@H](CCCCN)NC(=O)[C@H](CCCN=C(N)N)NC(=O)[C@H](C)NC(=O)[C@H](CO)NC(=O)[C@H](CCCCN)NC(=O)[C@H](CCCN=C(N)N)NC(=O)[C@H](C)NC(=O)CNC(=O)[C@@H](NC(=O)[C@H](Cc1ccccc1)NC(=O)CNC(=O)CNC(=O)[C@@H](N)Cc1ccccc1)[C@@H](C)O)C(=O)N[C@@H](C)C(=O)N[C@@H](CC(N)=O)C(=O)N[C@@H](CCC(N)=O)C(=O)O` [NOCICEPTIN], the half-life in series [5] is 1 h. The Activity entry in series [6] was “Non-toxic”.

On to `C[C@H](NC(=O)CNC(=O)[C@@H](NC(=O)[C@H](Cc1ccccc1)NC(=O)CNC(=O)CNC(=O)[C@@H](N)Cc1ccccc1)[C@@H](C)O)C(=O)N[C@@H](CCCNC(=N)N)C(=O)N[C@@H](CCCCN)C(=O)N[C@@H](CO)C(=O)N[C@@H](C)C(=O)N[C@@H](CCCNC(=N)N)C(=O)N[C@@H](CCCCN)C(N)=O`, for which the maximal response (Emax) in series [3] is 90%.

As to `CC(C)C[C@H](NC(=O)[C@H](CCCCN)NC(=O)[C@H](CCCNC(=N)N)NC(=O)[C@H](C)NC(=O)[C@H](CO)NC(=O)[C@H](CCCCN)NC(=O)[C@H](CCCNC(=N)N)NC(=O)[C@H](C)NC(=O)CNC(=O)[C@@H](NC(=O)[C@H](Cc1ccc(F)cc1)NC(=O)CNC(=O)CNC(=O)CNC(=O)c1ccccc1)[C@@H](C)O)C(=O)N[C@@H](CCCCN)C(=O)N[C@@H](CC(N)=O)C(=O)N[C@@H](CCC(N)=O)C(N)=O`, the outcome in series [7] was inactive.

On to `C[C@@H](O)[C@H](NC(=O)[C@H](Cc1ccccc1)NC(=O)CNC(=O)CNC(=O)[C@@H](N)Cc1ccccc1)C(=O)NCC(=O)N[C@H]1CCCCNC(=O)C[C@@H](C(=O)N[C@@H](CCCN=C(N)N)C(=O)N[C@@H](CCCCN)C(N)=O)NC(=O)[C@H](CO)NC(=O)[C@H](CCCCN)NC(=O)[C@H](CCCN=C(N)N)NC1=O` (H-FGGFTGKRKSDRK-NH2; lactam 7-11), for which, in series [1], the 50% effective concentration (EC50) was determined as 30 nM.

Turning to `C[C@@H]1NC(=O)[C@@H](NC(=O)[C@H](CCCCN)NC(=O)[C@H](CCCN=C(N)N)NC(=O)[C@@H]2CC(=O)NCCCC[C@H](NC(=O)CNC(=O)[C@@H](NC(=O)[C@H](Cc3ccccc3)NC(=O)CNC(=O)CNC(=O)[C@@H](N)Cc3ccccc3)[C@@H](C)O)C(=O)N[C@@H](CCCN=C(N)N)C(=O)N[C@@H](CCCCN)C(=O)N[C@@H](CO)C(=O)N2)CCCCNC(=O)C[C@@H](C(N)=O)NC(=O)[C@H](CCC(N)=O)NC(=O)[C@H](CC(N)=O)NC1=O`, the half-life in series [5] was over 6 h. The Activity entry in series [6] is “Non-toxic”.

For `C[C@@H](O)[C@H](NC(=O)[C@H](Cc1ccccc1)NC(=O)CNC(=O)CNC(=O)[C@@H](N)Cc1ccccc1)C(=O)NCC(=O)N[C@H]1CCCCNC(=O)C[C@@H](C(N)=O)NC(=O)[C@H](CCCCN)NC(=O)[C@H](CCCNC(=N)N)NC(=O)[C@@H]2CC(=O)NCCCC[C@@H](CC(=O)[C@H](CCCCN)NC(=O)[C@H](CCCNC(=N)N)NC1=O)C(=O)N2`, in series [3], the Emax turned out to be 92%.

For the compound `C[C@@H](O)[C@H](NC(=O)[C@H](Cc1ccc(F)cc1)NC(=O)CNC(=O)CNC(=O)CNC(=O)c1ccccc1)C(=O)NCC(=O)N[C@H]1CCCCNC(=O)C[C@@H](C(=O)N[C@@H](CCCN=C(N)N)C(=O)N[C@@H](CCCCN)C(=O)N[C@H]2CCCCNC(=O)C[C@@H](C(N)=O)NC(=O)[C@H](CCC(N)=O)NC(=O)[C@H](CC(N)=O)NC(=O)[C@H](CCCCN)NC2=O)NC(=O)[C@H](CO)NC(=O)[C@H](CCCCN)NC(=O)[C@H](CCCN=C(N)N)NC1=O`, the IC50 in series [2] (read-out: IC50) was 7.5 nM. Further, the Kb in series [8] is 1.95 nM.

As to `CC(C)C[C@@H]1NC(=O)[C@H](CCCCN)NC(=O)[C@H](CCCN=C(N)N)NC(=O)[C@@H](NC(=O)[C@@H]2CC(=O)NCCCC[C@H](NC(=O)[C@@H](NC(=O)[C@H](Cc3ccccc3)NC(=O)CNC(=O)CNC(=O)CNC(=O)c3ccccc3)[C@@H](C)O)C(=O)N[C@@H](C)C(=O)N[C@@H](CCCN=C(N)N)C(=O)N[C@@H](CCCCN)C(=O)N2)CCCCNC(=O)C[C@@H](C(N)=O)NC1=O` (Bz-GGGFTKARKDKRKLD-NH2; lactam 6-10, 11-15), in series [2] (read-out: pIC50 (converted)), the IC50 was over 100 nM.

Consider `CC(C)C[C@@H]1NC(=O)[C@H](CCCCN)NC(=O)[C@H](CCCNC(=N)N)NC(=O)[C@@H](NC(=O)[C@@H]2CC(=O)NCCCC[C@H](NC(=O)[C@@H](NC(=O)[C@H](Cc3ccccc3)NC(=O)CNC(=O)CNC(=O)CNC(=O)c3ccccc3)[C@@H](C)O)C(=O)N[C@@H](C)C(=O)N[C@@H](CCCNC(=N)N)C(=O)N[C@@H](CCCCN)C(=O)N2)CCCCNC(=O)C[C@@H](C(N)=O)NC1=O` (Bz-GGGFTKARKDKRKLD-NH2; lactam 6-10, 11-15), for which the inhibition result in series [4] was “inactive”.

With `C[C@@H](O)[C@H](NC(=O)[C@H](Cc1ccc(F)cc1)NC(=O)CNC(=O)CNC(=O)CNC(=O)c1ccccc1)C(=O)NCC(=O)N[C@H]1CCCCNC(=O)C[C@@H](C(=O)N[C@@H](CCCNC(=N)N)C(=O)N[C@@H](CCCCN)C(=O)N[C@H]2CCCCNC(=O)C[C@@H](C(N)=O)NC(=O)[C@H](CCC(N)=O)NC(=O)[C@H](CC(N)=O)NC(=O)[C@H](CCCCN)NC2=O)NC(=O)[C@H](CO)NC(=O)[C@H](CCCCN)NC(=O)[C@H](CCCNC(=N)N)NC1=O`, the result in series [7] was inactive.

For the origin of these results see ChEMBL document CHEMBL1629538 (J Med Chem, 2010).
